Assay results published in US10004701B2, “Methods and compositions for treating infection” (UNIVERSITY OF ROCHESTER, priority 2012, dated 2018).
Structures can show the parent of a compound that is named as a salt. Where two headings read alike, the source gives them in different places.

Assays:
Assay in all cases: AK assay 384-well format, Prestwick library screening
E. faecium = assay type: cell-based, Enterococcus faecium; conditions: Enterococcus faecium, 3 h, 50 μM final drug concentration
[1] = system: A. baumannii strain 98-37-09; assay type: cell-based, Acinetobacter baumannii; conditions: Acinetobacter baumannii, 983709, 3 h, 50 μM final drug concentration
E. cloacae = assay type: cell-based, Enterobacter cloacae; conditions: Enterobacter cloacae, 3 h, 50 μM final drug concentration
P. aeruginosa = assay type: cell-based, Pseudomonas aeruginosa; conditions: Pseudomonas aeruginosa, 3 h, 50 μM final drug concentration
E. coli = assay type: cell-based, Escherichia coli; conditions: Escherichia coli, 3 h, 50 μM final drug concentration
K. pneumoniae = assay type: cell-based, Klebsiella pneumoniae; conditions: Klebsiella pneumoniae, 3 h, 50 μM final drug concentration
[2] = system: S. aureus strain USA300-0114; assay type: cell-based, Staphylococcus aureus; conditions: Staphylococcus aureus, USA300, 3 h, 50 μM final drug concentration
[3] = 384-well format, cutoff for positive-scoring molecules 3-fold increase, read-out: AK-based Prestwick Library Screening Results, E. faecium (increase in extracellular AK activity)
[4] = 384-well format, cutoff for positive-scoring molecules 3-fold increase, read-out: AK-based Prestwick Library Screening Results, A. baumannii (increase in extracellular AK activity)
[5] = 384-well format, cutoff for positive-scoring molecules 3-fold increase, read-out: AK-based Prestwick Library Screening Results, E. cloacae (increase in extracellular AK activity)
[6] = 384-well format, cutoff for positive-scoring molecules 3-fold increase, read-out: AK-based Prestwick Library Screening Results, P. aeruginosa (increase in extracellular AK activity)
[7] = 384-well format, cutoff for positive-scoring molecules 3-fold increase, read-out: AK-based Prestwick Library Screening Results, E. coli (increase in extracellular AK activity)
[8] = 384-well format, cutoff for positive-scoring molecules 3-fold increase, read-out: AK-based Prestwick Library Screening Results, K. pneumoniae (increase in extracellular AK activity)
[9] = 384-well format, cutoff for positive-scoring molecules 3-fold increase, read-out: AK-based Prestwick Library Screening Results, S. aureus (increase in extracellular AK activity)
[10] = cutoff for positive-scoring molecules 3-fold increase, read-out: AK-based Prestwick Library Screening Results, E. faecium (fold increase in extracellular AK activity)
[11] = cutoff for positive-scoring molecules 3-fold increase, read-out: AK-based Prestwick Library Screening Results, A. baumannii (fold increase in extracellular AK activity)
[12] = cutoff for positive-scoring molecules 3-fold increase, read-out: AK-based Prestwick Library Screening Results, E. cloacae (fold increase in extracellular AK activity)
[13] = cutoff for positive-scoring molecules 3-fold increase, read-out: AK-based Prestwick Library Screening Results, P. aeruginosa (fold increase in extracellular AK activity)
[14] = cutoff for positive-scoring molecules 3-fold increase, read-out: AK-based Prestwick Library Screening Results, E. coli (fold increase in extracellular AK activity)
[15] = cutoff for positive-scoring molecules 3-fold increase, read-out: AK-based Prestwick Library Screening Results, K. pneumoniae (fold increase in extracellular AK activity)
[16] = cutoff for positive-scoring molecules 3-fold increase, read-out: AK-based Prestwick Library Screening Results, S. aureus (fold increase in extracellular AK activity)
[17] = planktonic, […], read-out: AK-based Prestwick Library Screening Results, E. faecium (fold increase in extracellular AK activity)
[18] = planktonic, […], read-out: AK-based Prestwick Library Screening Results, A. baumannii (fold increase in extracellular AK activity)
[19] = planktonic, […], read-out: AK-based Prestwick Library Screening Results, E. cloacae (fold increase in extracellular AK activity)
[20] = planktonic, […], read-out: AK-based Prestwick Library Screening Results, P. aeruginosa (fold increase in extracellular AK activity)
[21] = planktonic, […], read-out: AK-based Prestwick Library Screening Results, E. coli (fold increase in extracellular AK activity)
[22] = planktonic, […], read-out: AK-based Prestwick Library Screening Results, K. pneumoniae (fold increase in extracellular AK activity)
[23] = planktonic, […], read-out: AK-based Prestwick Library Screening Results, S. aureus (fold increase in extracellular AK activity)
[24] = planktonic, cutoff for positive-scoring molecules 3-fold increase, read-out: AK-based Prestwick Library Screening Results, E. faecium (fold increase in extracellular AK activity)
[25] = planktonic, cutoff for positive-scoring molecules 3-fold increase, read-out: AK-based Prestwick Library Screening Results, A. baumannii (fold increase in extracellular AK activity)
[26] = planktonic, cutoff for positive-scoring molecules 3-fold increase, read-out: AK-based Prestwick Library Screening Results, E. cloacae (fold increase in extracellular AK activity)
[27] = planktonic, cutoff for positive-scoring molecules 3-fold increase, read-out: AK-based Prestwick Library Screening Results, P. aeruginosa (fold increase in extracellular AK activity)
[28] = planktonic, cutoff for positive-scoring molecules 3-fold increase, read-out: AK-based Prestwick Library Screening Results, E. coli (fold increase in extracellular AK activity)
[29] = planktonic, cutoff for positive-scoring molecules 3-fold increase, read-out: AK-based Prestwick Library Screening Results, K. pneumoniae (fold increase in extracellular AK activity)
[30] = planktonic, cutoff for positive-scoring molecules 3-fold increase, read-out: AK-based Prestwick Library Screening Results, S. aureus (fold increase in extracellular AK activity)

COc1ncnc(NS(=O)(=O)c2ccc(N)cc2)c1OC [Sulfadoxine]
fold induction at 50 µM (E. faecium; planktonic E. faecium, positive cutoff 3-fold increase, read-out: AK-based Prestwick library screening result, E. faecium (fold increase in extracellular AK activity)): 1
fold induction at 50 µM ([1]; planktonic A. baumannii, positive cutoff 3-fold increase, read-out: AK-based Prestwick library screening result, A. baumannii (fold increase in extracellular AK activity)): 2.9
fold induction at 50 µM (E. cloacae; planktonic E. cloacae, positive cutoff 3-fold increase, read-out: AK-based Prestwick library screening result, E. cloacae (fold increase in extracellular AK activity)): 1.3
fold induction at 50 µM (P. aeruginosa; planktonic P. aeruginosa, positive cutoff 3-fold increase, read-out: AK-based Prestwick library screening result, P. aeruginosa (fold increase in extracellular AK activity)): 1
fold induction at 50 µM (E. coli; planktonic E. coli, positive cutoff 3-fold increase, read-out: AK-based Prestwick library screening result, E. coli (fold increase in extracellular AK activity)): 1
fold induction at 50 µM (K. pneumoniae; planktonic K. pneumoniae, positive cutoff 3-fold increase, read-out: AK-based Prestwick library screening result, K. pneumoniae (fold increase in extracellular AK activity)): 1
fold induction at 50 µM ([2]; planktonic S. aureus, positive cutoff 3-fold increase, read-out: AK-based Prestwick library screening result, S. aureus (fold increase in extracellular AK activity)): 0.9

[H]/N=C(/N)NS(=O)(=O)c1ccc(N)cc1 [Sulfaguanidine]
fold induction at 50 µM (E. faecium; [3]): 1
fold induction at 50 µM [1, 4]: 0.5
fold induction at 50 µM (E. cloacae; [5]): 0.4
fold induction at 50 µM (P. aeruginosa; [6]): 0.5
fold induction at 50 µM (E. coli; [7]): 0.5
fold induction at 50 µM (K. pneumoniae; [8]): 0.6
fold induction at 50 µM [2, 9]: 0.5

Cc1ccnc(NS(=O)(=O)c2ccc(N)cc2)n1 [Sulfamerazine]
fold induction at 50 µM (E. faecium; [10]): 1
fold induction at 50 µM [1, 11]: 2.1
fold induction at 50 µM (E. cloacae; [12]): 1.9
fold induction at 50 µM (P. aeruginosa; [13]): 1
fold induction at 50 µM (E. coli; [14]): 1.1
fold induction at 50 µM (K. pneumoniae; [15]): 1
fold induction at 50 µM [2, 16]: 0.9

COc1cnc(NS(=O)(=O)c2ccc(N)cc2)nc1 [Sulfameter]
fold induction at 50 µM (E. faecium; [17]): 1
fold induction at 50 µM [1, 18]: 2.3
fold induction at 50 µM (E. cloacae; [19]): 1.2
fold induction at 50 µM (P. aeruginosa; [20]): 1.1
fold induction at 50 µM (E. coli; [21]): 1.3
fold induction at 50 µM (K. pneumoniae; [22]): 1
fold induction at 50 µM [2, 23]: 1.2

Cc1cc(C)nc(NS(=O)(=O)c2ccc(N)cc2)n1 [Sulfamethazine sodium salt]
fold induction at 50 µM (E. faecium; [10]): 1
fold induction at 50 µM [1, 11]: 1.6
fold induction at 50 µM (E. cloacae; [12]): 1.4
fold induction at 50 µM (P. aeruginosa; [13]): 1.1
fold induction at 50 µM (E. coli; [14]): 1
fold induction at 50 µM (K. pneumoniae; [15]): 1
fold induction at 50 µM [2, 16]: 1.4

Cc1nnc(NS(=O)(=O)c2ccc(N)cc2)s1 [Sulfamethizole]
fold induction at 50 µM (E. faecium; [24]): 0.9
fold induction at 50 µM [1, 25]: 1.4
fold induction at 50 µM (E. cloacae; [26]): 0.9
fold induction at 50 µM (P. aeruginosa; [27]): 0.8
fold induction at 50 µM (E. coli; [28]): 1
fold induction at 50 µM (K. pneumoniae; [29]): 0.7
fold induction at 50 µM [2, 30]: 0.7

COc1ccc(NS(=O)(=O)c2ccc(N)cc2)nn1 [Sulfamethoxypyridazine]
fold induction at 50 µM (E. faecium; planktonic, cutoff for positive 3-fold increase, read-out: AK-based Prestwick Library Screening Results, E. faecium (fold increase in extracellular AK activity)): 0.9
fold induction at 50 µM ([1]; planktonic, cutoff for positive 3-fold increase, read-out: AK-based Prestwick Library Screening Results, A. baumannii (fold increase in extracellular AK activity)): 0.7
fold induction at 50 µM (E. cloacae; planktonic, cutoff for positive 3-fold increase, read-out: AK-based Prestwick Library Screening Results, E. cloacae (fold increase in extracellular AK activity)): 0.3
fold induction at 50 µM (P. aeruginosa; planktonic, cutoff for positive 3-fold increase, read-out: AK-based Prestwick Library Screening Results, P. aeruginosa (fold increase in extracellular AK activity)): 0.3
fold induction at 50 µM (E. coli; planktonic, cutoff for positive 3-fold increase, read-out: AK-based Prestwick Library Screening Results, E. coli (fold increase in extracellular AK activity)): 0.5
fold induction at 50 µM (K. pneumoniae; planktonic, cutoff for positive 3-fold increase, read-out: AK-based Prestwick Library Screening Results, K. pneumoniae (fold increase in extracellular AK activity)): 0.5
fold induction at 50 µM ([2]; planktonic, cutoff for positive 3-fold increase, read-out: AK-based Prestwick Library Screening Results, S. aureus (fold increase in extracellular AK activity)): 0.4

COc1cc(NS(=O)(=O)c2ccc(N)cc2)ncn1 [Sulfamonomethoxine]
fold induction at 50 µM (E. faecium; [24]): 0.9
fold induction at 50 µM [1, 25]: 1.6
fold induction at 50 µM (E. cloacae; [26]): 1.1
fold induction at 50 µM (P. aeruginosa; [27]): 1
fold induction at 50 µM (E. coli; [28]): 0.9
fold induction at 50 µM (K. pneumoniae; [29]): 0.8
fold induction at 50 µM [2, 30]: 0.7

Nc1ccc(S(N)(=O)=O)cc1 [Sulfanilamide]
fold induction at 50 µM (E. faecium; [24]): 0.9
fold induction at 50 µM [1, 25]: 1.5
fold induction at 50 µM (E. cloacae; [26]): 0.4
fold induction at 50 µM (P. aeruginosa; [27]): 0.5
fold induction at 50 µM (E. coli; [28]): 0.5
fold induction at 50 µM (K. pneumoniae; [29]): 0.6
fold induction at 50 µM [2, 30]: 0.4

Nc1ccc(S(=O)(=O)Nc2ccnn2-c2ccccc2)cc1 [Sulfaphenazole]
fold induction at 50 µM (E. faecium; [3]): 0.8
fold induction at 50 µM [1, 4]: 1.4
fold induction at 50 µM (E. cloacae; [5]): 0.8
fold induction at 50 µM (P. aeruginosa; [6]): 0.8
fold induction at 50 µM (E. coli; [7]): 0.8
fold induction at 50 µM (K. pneumoniae; [8]): 0.7
fold induction at 50 µM [2, 9]: 0.8

Nc1ccc(S(=O)(=O)Nc2ccccn2)cc1 [Sulfapyridine]
fold induction at 50 µM (E. faecium; [17]): 1
fold induction at 50 µM [1, 18]: 2.2
fold induction at 50 µM (E. cloacae; [19]): 1.6
fold induction at 50 µM (P. aeruginosa; [20]): 1.1
fold induction at 50 µM (E. coli; [21]): 1.2
fold induction at 50 µM (K. pneumoniae; [22]): 0.9
fold induction at 50 µM [2, 23]: 1.4

Nc1ccc(S(=O)(=O)Nc2cnc3ccccc3n2)cc1 [Sulfaquinoxaline sodium salt]
fold induction at 50 µM (E. faecium; [24]): 0.9
fold induction at 50 µM [1, 25]: 1
fold induction at 50 µM (E. cloacae; [26]): 0.8
fold induction at 50 µM (P. aeruginosa; [27]): 0.6
fold induction at 50 µM (E. coli; [28]): 0.6
fold induction at 50 µM (K. pneumoniae; [29]): 0.6
fold induction at 50 µM [2, 30]: 0.7
